# From publication PMC5809414, “Physician-initiated clinical study of limb ulcers treated with a functional peptide, SR-0379: from discovery to a randomized, double-blind, placebo-controlled trial” (NPJ Aging and Mechanisms of Disease, 2018)
# Values joined by “and” are separate entries in the source; they are usually repeats but may differ in a detail not shown here. Identical values can stand only once. Like-named read-outs stand apart in the source and are kept apart here. Where a SMILES comes first, the peptide text is derived from it. [ ]: non-standard residue; d: D form.
# Experiments:
# [1] = tested on: Pseudomonas aeruginosa, Staphylococcus aureus, MRSA, and Streptococcus pyogenes; test: Bacterial wound cultures (change pre to post); type: in vivo, human; details: n = 3
# Method: (§1) The primary outcome was the rate of wound size reduction at 4 weeks after the first treatment compared with pre-treatment wound size. Additionally, the following secondary endpoints were measured at 4 weeks after the first treatment and compared with pre-treatment status: time to wound closure; 50% wound size reduction ratio; quantification of Pseudomonas aeruginosa, Staphylococcus aureus, MRSA, and Streptococcus pyogenes; and overall evaluated ulcer improvement. Ulcer size was quantified based on skin ulcer pictures according to a defined procedure using ImageJ software and calculated as the percent change. We also used the DESIGN-R score index, which is calculated based on six components (exudate, size, infection/inflammation, granulation tissue, necrotic tissue, and pocket size), as a tool to score pressure ulcer severity.[23] Depth was excluded from the calculation. The total score was calculated by weighting the score of each item; a high score indicates greater severity. The safety of SR-0379 was evaluated during the treatment period (28 days) every 7 days and post-treatment (7 days) according to the Common Terminology Criteria for Adverse Events (version 4.0).
# [2] = Safety evaluation (adverse events) in the clinical study; type: in vivo, human
# Method: as §1
# infected wound = details: rat infected wound model, compared with FGF2; cited from earlier work
# [3] = tested on: endothelial cell and fibroblast; details: in vitro; cited from earlier work
# From the text: SR-0379 also promoted angiogenesis, granulation tissue formation, and endothelial cell and fibroblast proliferation in vitro. In this study, we conducted a multi-center, double-blinded, randomized phase I/IIa clinical study to evaluate the safety, efficacy, and pharmacokinetics of SR-0379 for the treatment of leg ulcers.
# leg ulcers = test: Phase I/IIa randomized, double-blind, placebo-controlled study: wound size, closure, DESIGN-R, overall improvement; type: in vivo, human; details: for skin ulcer rate of reduction at the final evaluation (4th week or discontinuation): vs pre-treatment wound size, mean ± SD; for skin ulcer rate of reduction at the final evaluation (4th week or discontinuation) / Overall improvement, Mild: number of patients / Overall improvement, Moderate: number of patients / Overall improvement, No change: number of patients / Overall improvement, Worse: number of patients / Skin ulcer size, 2 weeks after treatment (mean ± SD) / Skin ulcer size, Post-treatment (mean ± SD) / Wound closure, Yes: number of patients (%) / DESIGN-R total score, Post-mean (SD) / Overall improvement, Significant: number of patients: n = 3; for DESIGN-R total score, Pre-mean (SD): n = 3, baseline; for DESIGN-R total score, Pre-mean (SD) / DESIGN-R total score, Post-mean (SD): depth excluded, 0 (healed) to 66; for Overall improvement, Significant: number of patients: evaluation by investigators
# Method: GMP-grade SR-0379 peptide was generated by the American Peptide Company (Torrance, CA, USA). The peptide was dissolved in a physiological salt solution, and spray-type containers were charged with 10 mL of SR-0379 solution under GMP conditions by Nagase Medical Co. Ltd. (Itami, Hyogo, Japan). A total of 0.05 mL of SR-0379 solution was administered per spray using this container. According to the protocol, each patient received 0.25 mL of SR-0379 solution over five sprays once per day for 28 days.
# The clinical trial was conducted as an investigator-initiated, phase I/IIa, randomized, double-blind, placebo-controlled trial at five hospitals (Osaka University Hospital, Osaka; Chiba University Hospital, Chiba; Asano-Kanamachi Clinic, Tokyo; Medical Plaza Shinozakieki Nishiguchi, Tokyo; and Kasukabe Chuo General Hospital, Saitama) in Japan. Twelve patients were randomized into four groups and treated with 0.02%, 0.1%, or 0.5% SR-0379 or placebo treatment. The inclusion criteria for this clinical trial were: (1) adult (age≧20 years), (2) a diagnosis of diabetic ulcer or limb ulcer (artery or venous ulcer); and (3) wound size <6 cm in diameter. Exclusion criteria is (1) infection to be cured with antibiotics, (2) deep ulcer with reaching bone tissue, (3) skin ulcer with malignant tumor, (4) severe edema around skin ulcer, (5) patients with malignant tumor, (6) patients with severe heart failure, (7) patients with severe liver, kidney, and blood dysfunction, (8) malnutrition (serum albumin ≦2 g/dL), (9) poor general condition due to severe systemic infection, (10) poor control of hyperglycemia (HbA1c ≧9.0%), (11) pregnant women, and men or women who disagreed to avoid pregnancy during clinical trial period, (12) patients who changed from an oral to an intravenous drug to regulate blood flow (i.e., prostaglandin E1, prostacyclin I2) from 2 weeks before SR-0379 or placebo treatment, (13) surgical procedure for skin ulcer from 2 weeks before SR-0379 or placebo treatment, (14) attendance to other clinical trial from 12 weeks before SR-0379 or placebo treatment, and (15) judgment as an inappropriate patient by principle investigator. The study protocol was approved by the institutional review board of each hospital. Patients gave written informed consent before enrollment.
# Twelve patients were randomized into four groups and treated with 0.02%, 0.1,% or 0.5% SR-0379 or placebo treatment. The allocation was generated by a computer program before starting the initial enrollment, and the allocation coordinator concealed the allocation information until the last patient finished. The placebo drug was indistinguishable in terms of appearance. The trial drugs were distributed to each hospital according to the allocation schedule for each patient. All study personnel and patients were masked to treatment group allocation.
# SR-0379 (0.02%, 0.1%, and 0.5%) or placebo was topically administered after cleaning with soap once per day for 28 days. After treatment, the wound was covered with a piece of gauze. […] No topical wound healing drugs were used in combination with SR-0379 or placebo for the same skin ulcer, and the topical use of FGF2 (trafermin) was prohibited starting 2 weeks before treatment through the final treatment.
# Upon study entry, clinical assessments, skin ulcer evaluations, blood and urine tests, chest radiographs, and ECGs were performed 1 week before treatment. Prior to the first treatment, clinical assessments and skin ulcer evaluations were performed, and plasma SR-0379 levels were measured at 15 and 60 min after the first treatment. After treatment, clinical assessments, skin ulcer evaluation, blood and urine tests, and ECGs were performed, and plasma SR-0379 levels were measured at 15 and 60 min after the final treatment. During the follow-up period (1 week after treatment), patients received appropriate treatment, including FGF2 (trafermin). […]
# healthy men = tested on: healthy men; design: species or system human; details: in vivo
# Method: A closed patch test was performed with SR-0379 at Shinanozaka Clinic (Shinjuku, Tokyo, Japan); the study protocol was approved by the Shinanozaka Clinic institutional review board. The registry number is UMIN000015391, and the URL is https://upload.umin.ac.jp/cgi-open-bin/ctr_e/ctr_view.cgi?recptno=R000017479. Sixty-six men were screened after obtaining informed consent, and a total of 20 healthy men were enrolled for the patch test after obtaining informed consent between October and November 2014. The inclusion criteria for healthy men were: (1) adult age (≧20 years and ≦40 years); (2) body mass index (≧18.5 and <25.0 kg/m^2); and (3) systolic blood pressure (SBP, ≦140 mmHg) and diastolic blood pressure (DBP, ≦90 mmHg); additionally, patients were to be within normal limits in an ECG test. The exclusion criteria were drug allergy or a history thereof, atopic dermatitis or allergic contact dermatitis, skin with dermatitis or inflammation, organ failure (heart, liver, kidney, blood), and others. The closed patch test was performed with a Finn chamber (7 mm) using filter paper containing 0.015 mL of SR-0379 solution (0%, 0.02%, 0.1%, 0.25%, or 0.5%). The allocation was generated by a coordinator and masked for the evaluator. […] Results were evaluated at 1 and 24 h after removal and graded according to the International Contact Dermatitis Research Group criteria (grades 1–6). […]
# venous leg ulcers = details: cited from earlier work
# From the text: Recently, another anti-microbial peptide, LL-37, was similarly evaluated for venous leg ulcers.[26] The study design consisted of a 4-week randomized double-blind t ...
molecule,measurement,setting,value
CC[C@H](C)[C@H](NC(=O)[C@H](CC(C)C)NC(=O)[C@H](CCCCN)NC(=O)[C@H](CC(C)C)NC(=O)[C@@H](N)CCSC)C(=O)N[C@@H](Cc1ccccc1)C(=O)N[C@@H](CC(C)C)C(=O)N[C@@H](Cc1c[nH]cn1)C(=O)N[C@@H](CCCNC(=N)N)C(=O)N[C@@H](CC(C)C)C(=O)N[C@@H](CCCCN)C(=O)N[C@@H](CCCNC(=N)N)C(=O)N[C@@H](CCSC)C(=O)N[C@@H](CCCNC(=N)N)C(=O)N[C@@H](CCCCN)C(=O)N[C@@H](CCCNC(=N)N)C(=O)N[C@@H](CC(C)C)C(=O)N[C@H](CCCCN)C(=O)N[C@@H](CCCNC(=N)N)C(=O)N[C@@H](CCCCN)C(=O)O [SR-0379] (H-MLKLIFLHRLKRMRKRL[dK]RK-OH; N-terminus and C-terminus assumed),"Bacterial wound cultures, Decrease: number of patients",[1]; 0.02% group,2
same,"Bacterial wound cultures, Increase: number of patients",[1]; 0.02% group,1
same,"Bacterial wound cultures, No change: number of patients",[1]; 0.02% group,0
same,"Bacterial wound cultures, Decrease: number of patients",[1]; 0.1% group,2
same,"Bacterial wound cultures, Increase: number of patients",[1]; 0.1% group,0
same,"Bacterial wound cultures, No change: number of patients",[1]; 0.1% group,1
same,"Bacterial wound cultures, Decrease: number of patients",[1]; 0.5% group,1
same,"Bacterial wound cultures, Increase: number of patients",[1]; 0.5% group,0
same,"Bacterial wound cultures, No change: number of patients",[1]; 0.5% group,1
same,Adverse event: Outcome,"[2]; 0.5% SR-0379, person, pneumonia",Death
same,Adverse event: Causality,"[2]; human, in vivo",No
same,"local adverse events such as itching, rash, or pain during treatment","[2]; human, in vivo",no local adverse events
same,relation of all adverse events to SR-0379 treatment,"[2]; human, in vivo",unrelated
same,wound healing effect,infected wound,higher than that of fibroblast growth factor 2 (FGF2)
same,"angiogenesis, granulation tissue formation, and endothelial cell and fibroblast proliferation",[3],promoted
same,"Size reduction (percent decrease) of skin ulcers, mean","leg ulcers; 0.02% SR-0379, 2 weeks after treatment",-3.157%
same,"Size decrease, single patient","leg ulcers; 0.02% SR-0379, diabetic ulcer, foot (lateral malleolus), Werner Syndrome patient",61.45%
same,"Size decrease, single patient","leg ulcers; 0.02% SR-0379, diabetic ulcer, low leg",75.00%
same,"Size decrease, single patient","leg ulcers; 0.02% SR-0379, ischemic ulcer, finger",-2.27%
same,skin ulcer rate of reduction at the final evaluation (4th week or discontinuation),leg ulcers; 0.02% SR-0379 topical once per day for 28 days,44.73 ± 41.26% and 44.727%
same,"Overall improvement, Mild: number of patients",leg ulcers; 0.02% group,1
same,"Overall improvement, Moderate: number of patients",leg ulcers; 0.02% group,1
same,"Overall improvement, No change: number of patients",leg ulcers; 0.02% group,0
same,"Overall improvement, Worse: number of patients",leg ulcers; 0.02% group,1
same,"Skin ulcer size, 2 weeks after treatment (mean ± SD)",leg ulcers; 0.02% group,0.777 ± 0.783
same,"Skin ulcer size, Post-treatment (mean ± SD)",leg ulcers; 0.02% group,0.563 ± 0.698
same,"Wound closure, Yes: number of patients (%)",leg ulcers; 0.02% group,0 (0%)
same,"DESIGN-R total score, Pre-mean (SD)",leg ulcers; 0.02% group,9.3 (4.7)
same,"DESIGN-R total score, Post-mean (SD)",leg ulcers; 0.02% group,4.3 (1.5)
same,"Overall improvement, Significant: number of patients",leg ulcers; 0.02% group,1
same,"Size reduction (percent decrease) of skin ulcers, mean","leg ulcers; 0.1% SR-0379, 2 weeks after treatment",38.36%
same,"Size decrease, single patient","leg ulcers; 0.1% SR-0379, diabetic ulcer, foot (heel), Werner Syndrome patient",34.93%
same,"Size decrease, single patient","leg ulcers; 0.1% SR-0379, diabetic ulcer, foot, patient with skin abrasion",87.50%
same,"Size decrease, single patient","leg ulcers; 0.1% SR-0379, ischemic ulcer, finger",82.32%
same,skin ulcer rate of reduction at the final evaluation (4th week or discontinuation),leg ulcers; 0.1% SR-0379 topical once per day for 28 days,68.25 ± 28.98% and 68.247%
same,"Overall improvement, Mild: number of patients",leg ulcers; 0.1% group,1
same,"Overall improvement, Moderate: number of patients",leg ulcers; 0.1% group,1
same,"Overall improvement, No change: number of patients",leg ulcers; 0.1% group,0
same,"Overall improvement, Worse: number of patients",leg ulcers; 0.1% group,0
same,"Skin ulcer size, 2 weeks after treatment (mean ± SD)",leg ulcers; 0.1% group,0.320 ± 0.381
same,"Skin ulcer size, Post-treatment (mean ± SD)",leg ulcers; 0.1% group,0.473 ± 0.488
same,"Wound closure, Yes: number of patients (%)",leg ulcers; 0.1% group,0 (0%)
same,"DESIGN-R total score, Pre-mean (SD)",leg ulcers; 0.1% group,9.0 (1.0)
same,"DESIGN-R total score, Post-mean (SD)",leg ulcers; 0.1% group,5.3 (4.0)
same,"Overall improvement, Significant: number of patients",leg ulcers; 0.1% group,1
same,"Size reduction (percent decrease) of skin ulcers, mean","leg ulcers; 0.5% SR-0379, 2 weeks after treatment",14.443%
same,"Size decrease, single patient","leg ulcers; 0.5% SR-0379, diabetic ulcer, foot, complete ulcer closure",100%
same,"Size decrease, single patient","leg ulcers; 0.5% SR-0379, venous ulcer, low leg",14.84%
same,skin ulcer rate of reduction at the final evaluation (4th week or discontinuation),leg ulcers; 0.5% SR-0379 topical once per day for 28 days,71.61 ± 49.17% and 71.613%
same,"Overall improvement, Mild: number of patients",leg ulcers; 0.5% group,0
same,"Overall improvement, Moderate: number of patients",leg ulcers; 0.5% group,3
same,"Overall improvement, No change: number of patients",leg ulcers; 0.5% group,0
same,"Overall improvement, Worse: number of patients",leg ulcers; 0.5% group,0
same,"Skin ulcer size, 2 weeks after treatment (mean ± SD)",leg ulcers; 0.5% group,1.910 ± 3.179
same,"Skin ulcer size, Post-treatment (mean ± SD)",leg ulcers; 0.5% group,1.760 ± 3.048
same,"DESIGN-R total score, Pre-mean (SD)",leg ulcers; 0.5% group,12.0 (7.2)
same,"DESIGN-R total score, Post-mean (SD)",leg ulcers; 0.5% group,5.3 (5.1)
same,"Overall improvement, Significant: number of patients",leg ulcers; 0.5% group,0
same,"skin irritation index scores, assessment",healthy men,within permitted levels for clinical usage
same,vital signs and electrocardiogram (ECG),healthy men,no abnormal findings
LL-37,healing rate constants,"venous leg ulcers; 0.5 mg/mL LL-37, 4-week treatment, p = 0.003 vs placebo",higher than those for placebo
same,healing rate constants,"venous leg ulcers; 1.6 mg/mL LL-37, 4-week treatment, p = 0.088 vs placebo",higher than those for placebo
